Legend:
[1] = system: yeast strain PGY29 (sur2); experiment: Syringomycin E sensitivity growth assay, sur2 mutant strain PGY29; type: cell-based, Saccharomyces cerevisiae; conditions: PGY29 in rich medium; 5 μl of approximately 14-fold concentrated Syringomycin E-containing fraction dried in well of 384-well plate
Text: (§1) Syringomycin E is not a commercially available antibiotic and was, therefore, purified from the bacterium Pseudomonas syringae pv. syringae according to the method of (Bidwai & Zhang et al., 83 Plant Physiol 39-43 (1987)). Briefly, stationary-phase liquid cultures of P. syringae pv. syringae were extracted with acidified acetone and fractionated over an Amberlite XAD-2 (Sigma) column using a linear gradient of 0.1% trifluoroacetic acid/0.1% trifluoroacetic acid in 2-propanol. Each fraction was assayed for ability to inhibit growth of wild type (PGY8) and sur2 (PGY29) yeast strains. For the assay, 10 ml fractions were collected and 50 μl of each fraction was applied a 96-well plate and dried in a vacuum concentrator. […] of rich medium containing mid-logarithmic PGY8 or PGY29 at a cell density of 10^5 cells/ml were applied to each well. Growth was monitored after 18 hours by determining the absorbance at 600 nm. Syringomycin E-containing fractions were identified as those that inhibited growth of PGY8 but not of PGY29.
(§2) The ability of the amino-terminal truncated Arabidopsis LCBH to confer Syringomycin E sensitivity on the yeast sur2 mutant was determined as follows. […] 100 μl of yeast strains PGY8 and PGY29 in rich medium, or PGY31 in rich medium supplemented with galactose were added to each well and growth was monitored at 600 nm.

[2] = system: yeast strain PGY8 (wild type); experiment: Syringomycin E sensitivity growth assay, wild type yeast strain PGY8; type: cell-based, Saccharomyces cerevisiae; conditions: PGY8 in rich medium; 5 μl of approximately 14-fold concentrated Syringomycin E-containing fraction dried in well of 384-well plate
Text: as §1, §2

[3] = system: Wild-type yeast strains; conditions: cited from earlier work
[4] = system: sur2 mutants; conditions: cited from earlier work
[5] = system: yeast strain PGY31 (sur2 mutant expressing the truncated form of C4-LCBH); experiment: Syringomycin E sensitivity growth assay, sur2 mutant expressing truncated Arabidopsis LCBH (PGY31); type: cell-based, Saccharomyces cerevisiae; conditions: PGY31 in rich medium supplemented with galactose; 5 μl of approximately 14-fold concentrated Syringomycin E-containing fraction dried in well of 384-well plate
Text: as §1, §2

Syringomycin E
Growth in the presence of Syringomycin E (monitored at 600 nm) [1]: able to grow | Growth in the presence of Syringomycin E (monitored at 600 nm) [2]: completely inhibited | Sensitivity to syringomycin E [3]: sensitive | Growth in the presence of syringomycin E [4]: able to grow | Growth in the presence of Syringomycin E (monitored at 600 nm) [5]: completely inhibited

Source: patent publication US20040265836A1, “Methods for the identification of inhibitors of C4 Long Chain Base Hydroxylase activity in plants” (priority 2003, published 2004)
